The values below come from patent US11471428B2, “Method and pharmaceutical composition for treating depression” (ZHEJIANG UNIVERSITY, priority 2017, dated 2022).

For data set [1] the following is noted: not told; cited from earlier work.
Data set [2] concerns lateral habenular neurons. Put plainly: Hyperpolarization-triggered rebound bursts in LHb brain slices. The note with it: AP5 100 μM. Type of data set: cell-based.
The subject of data set [3] is spontaneously bursting LHb neurons. Description: Spontaneous bursts of LHb neurons in brain slices, bath application. Type of data set: cell-based.
The test system of another data set is NMDARs. Type of data set: cell-based. The note with it: NBQX, picrotoxin, 0 Mg2+.
In the next data set the test system is NMDAR. The note with it: cited from earlier work.
In data set [4] the test system is cLH rats. Put plainly: Forced swim test (FST) after local bilateral infusion in LHb of cLH rats. Type of data set: in vivo, rat. The note with it: 1 ul each side.
Data set [5] concerns cLH rats. Description: Sucrose preference test (SPT) after local bilateral infusion in LHb of cLH rats. Type of data set: in vivo, rat. The note with it: 1 ul each side.
For a further data set, the target named is AMPA receptor (AMPAR). The note with it: cited from earlier work.
The next data set has as its system silent LHb neurons. Put plainly: NMDA perfusion-induced bursting in originally silent LHb neurons. Type of data set: cell-based.
The subject of a further data set is C56BL/6 mice. Put plainly: Mouse forced swim test after i.p. administration. Type of data set: in vivo. The note with it: 1 hour after administration.
Data set [6] deals with LHb neurons. Description: Whole cell patch recording of spontaneous activity of LHb neurons, CRS mouse model. Type of data set: cell-based. The note with it: LHb slices of CRS mice.
For data set [7], the system named is LHb neurons. Description: In vivo multi-tetrode recording in the LHb of CRS mice. More on the design: species or system mouse.
The test system of data set [8] is LHb neurons. Description: Whole cell patch recording of spontaneous activity of LHb neurons, cLH rat model. Type of data set: cell-based. The note with it: LHb slices of cLH rats.
[9] abbreviates: ketamine 25 ug, 1 hr after infusion.
Where [10] appears, read: mibefradil 10 nmol, 1 hr after infusion.

Counter-ions that a name gives are not always drawn.

As for `O=C(O)[C@@H]1C[C@H](CP(=O)(O)O)CCN1` (racemic) [Selfotel], in [1], the blood-brain barrier permeability result is “capable of crossing a blood-brain barrier or show at least certain level of blood-brain barrier permeability”.
For orientation: IC50 means the concentration needed to halve the response being measured. For the molecule `NC(CCCP(=O)(O)O)C(=O)O` (centres unmarked) [AP5], in data set [1], the blood-brain barrier permeability result was “do not have blood-brain barrier permeability”. The “probability of neuron hyperpolarization-induced burst” value in data set [2] is reported as 0.12. For the same molecule, the spontaneous burst-firing entry in [3] (AP5 100 μM bath application) is recorded as “stopped burst-firing”. Further, the “isolated NMDAR-currents (NMDAR-EPSCs)” value in the data set on NMDARs is “abolished”. In the data set on NMDAR, the IC50 was 30 µM. In addition, the “immobile time in the FST” value in the data set on cLH rats [4] (AP5 40 nmol, 0.5 h) is “efficiently reduced the immobile time”. Further, the “hedonic behaviors in the SPT” value in the data set on cLH rats [5] (AP5 40 nmol, 0.5 h) is reported as “increased hedonic behaviors”.
`NC(CCCCCP(=O)(O)O)C(=O)O` (centres unmarked) [AP7]: the blood-brain barrier permeability entry in [1] is reported as “observed but at a low level”.
Take `N[C@@H](Cc1ccccn1)c1ccccc1` [AZD6765]: the blood-brain barrier permeability result in data set [1] is “capable of crossing a blood-brain barrier or show at least certain level of blood-brain barrier permeability”.
For `NC12CC3CC(CC(C3)C1)C2` [Amantadine], the blood-brain barrier permeability result in [1] is given as “capable of crossing a blood-brain barrier or show at least certain level of blood-brain barrier permeability”.
Consider `CCc1cccc(N(C)C(N)=Nc2cccc3ccccc23)c1` [Aptiganel], for which, in [1], the blood-brain barrier permeability entry is listed as “capable of crossing a blood-brain barrier or show at least certain level of blood-brain barrier permeability”.
Regarding `CNCC[C@@H](Oc1ccccc1C)c1ccccc1` [Atomoxetine], in data set [1], the blood-brain barrier permeability result is reported as “capable of crossing a blood-brain barrier or show at least certain level of blood-brain barrier permeability”.
As to `O=C(O)C1CN(C/C=C/P(=O)(O)O)CCN1` (centres unmarked) [CPPene], in [1], the blood-brain barrier permeability result is “capable of crossing a blood-brain barrier or show at least certain level of blood-brain barrier permeability”.
Take `COc1ccc2c(c1)[C@]13CCCC[C@@H]1[C@H](C2)N(C)CC3` [Dextromethorphan]: the blood-brain barrier permeability result in [1] is “capable of crossing a blood-brain barrier or show at least certain level of blood-brain barrier permeability”.
On to `NCC1(CC(=O)O)CCCCC1` [Gabapentin], for which the blood-brain barrier permeability result in data set [1] is listed as “do not have blood-brain barrier permeability”.
As for `CCCCCCC(C)(C)c1cc(O)c2c(c1)OC(C)(C)[C@H]1CC=C(CO)C[C@H]21` [HU-211], the blood-brain barrier permeability entry in [1] is on record as “capable of crossing a blood-brain barrier or show at least certain level of blood-brain barrier permeability”.
Regarding `C/C=C1\[C@H]2C=C(C)C[C@]1(N)c1ccc(=O)[nH]c1C2` [Huperzine A], the blood-brain barrier permeability entry in data set [1] is given as “capable of crossing a blood-brain barrier or show at least certain level of blood-brain barrier permeability”.
In the case of `CC(C)(C)CCN1C[C@@H]2C(CNC(=O)c3cc(Cl)cc(Cl)c3)[C@@H]2C1` (some centres unmarked) [ML218], the blood-brain barrier permeability result in data set [1] is recorded as “shows at least some level of blood-brain barrier permeability”.
Turning to `NS(=O)(=O)c1cccc2c1c([N+](=O)[O-])cc1nc(O)c(O)nc12` [NBQX], the IC50 on AMPA receptor (AMPAR) is 0.15 µM. In addition, the spontaneous bursts entry in data set [3] (NBQX 10 μM) is listed as “reduced bursts, but to a much smaller extent than NMDAR blockade”.
With `CN[C@H](CC(=O)O)C(=O)O` [NMDA, N-methyl-D-aspartate], the “originally silent LHb neurons induced to strong bursting activity” value in the data set on silent LHb neurons (NMDA 20 μM, NBQX, picrotoxin, 0 Mg2+) is 10 out of 13.
Regarding `CN[C@]12CCCC[C@H]1Cc1ccccc12` [PD-137889], the blood-brain barrier permeability entry in [1] is reported as “capable of crossing a blood-brain barrier or show at least certain level of blood-brain barrier permeability”.
For `CCN(c1ccccc1)c1cc(=NC)n(C)c(C)n1.Cl` [ZD7288], the “effect on spontaneous bursts” value in data set [3] (ZD7288 50 μM) is listed as “significant but much smaller effect on bursts than mibefradil”.
Turning to `CC1(C)OC(=O)NC1=O` [dimethadione], the blood-brain barrier permeability entry in data set [1] is reported as “shows at least some level of blood-brain barrier permeability”.
Take `CCC1(C)CC(=O)NC1=O` (centres unmarked) [ethosuximide]: the “effect in the forced swim test” value in the data set with C56BL/6 mice (ethosuximide 100 mg/kg i.p.) is “ineffective”. Moreover, the blood-brain barrier permeability entry in data set [1] was “shows at least some level of blood-brain barrier permeability”.
On to `CNC1(c2ccccc2Cl)CCCCC1=O` (centres unmarked) [ketamine], for which the “effect in the forced swim test” value with C56BL/6 mice (ketamine 2.5 mg/kg i.p.) is “ineffective”. Also, the blood-brain barrier permeability result in data set [1] is reported as “capable of crossing a blood-brain barrier or show at least certain level of blood-brain barrier permeability”. The “increase of bursting neurons in CRS mouse model” value in the data set with LHb neurons [6] is listed as “reversed by ketamine”. Moreover, in the data set with LHb neurons [7] (10 mg/kg, i.p., 1 h prior to recording, CRS mice), the “LHb bursting activity in vivo” value is on record as “significantly suppressed”. For the same molecule, the “cumulative frequency distributions of ISI” value with LHb neurons [7] (10 mg/kg, i.p., CRS mice) is “significantly shifted toward control level”. In the data set with LHb neurons [7] (1 hr after systemic injection, 10 mg/kg, i.p., CRS mice), the “LHb network synchronization (STA and SFC, theta band)” value is “reversed to control level”. Moreover, in the data set with LHb neurons [7] (CRS mice treated with ketamine (control 143 ms, CRS 33 ms)), the “50% percentile of ISI” value is given as 121 ms. Besides, the “increase of bursting neurons in cLH rat model” value with LHb neurons [8] is listed as “reversed by ketamine”. In the data set with cLH rats [4] (setting [9]), the “immobility time in the FST” value is “sufficient to quickly rescue the depressive-like behaviors”. Also, the “sustained antidepressant effect in FST” value in the data set with cLH rats [4] (ketamine 25 ug, 14 d) is “sustained antidepressant effects for 14 days”. Besides, the “anhedonia, sucrose preference test” value in the data set on cLH rats [5] (setting [9]) is “sufficient to quickly rescue the depressive-like behaviors”. For the same molecule, the “sustained antidepressant effect in SPT” value in the data set with cLH rats [5] (ketamine 25 ug, 14 d) is “sustained antidepressant effects for 14 days”. Further, in the data set on silent LHb neurons (additional bath application of 100 μM ketamine), the NMDA-induced bursting activity entry is listed as “blocked”.
With `O=C(O)c1cc(=O)c2ccccc2[nH]1` [kynurenic acid], the blood-brain barrier permeability entry in data set [1] is on record as “capable of crossing a blood-brain barrier or show at least certain level of blood-brain barrier permeability”.
Take `CC12CC3CC(C)(C1)CC(N)(C3)C2` [memantine hydrochloride]: the blood-brain barrier permeability entry in [1] is reported as “capable of crossing a blood-brain barrier or show at least certain level of blood-brain barrier permeability”.
On to `CN1C(=O)CC(C)(c2ccccc2)C1=O` (centres unmarked) [methsuximide], for which the blood-brain barrier permeability result in data set [1] is recorded as “shows at least some level of blood-brain barrier permeability”.
With `COCC(=O)O[C@]1(CCN(C)CCCc2nc3ccccc3[nH]2)CCc2cc(F)ccc2[C@@H]1C(C)C` [mibefradil], the blood-brain barrier permeability result in data set [1] is listed as “has no blood-brain barrier permeability”. The “immobility in the FST” value with cLH rats [4] (setting [10]) is on record as “quickly rescued the depressive-like behaviors”. In addition, the “anhedonia in the SPT” value in the data set on cLH rats [5] (setting [10]) is “quickly rescued the depressive-like behaviors”.
Take `O=C1NC(=O)C(c2ccccc2)(c2ccccc2)N1` [phenytoin]: the blood-brain barrier permeability result in data set [1] is “shows at least some level of blood-brain barrier permeability”.
As for `CCCC(CCC)C(=O)[O-].[Na+]` [sodium valproate], in data set [1], the blood-brain barrier permeability result is recorded as “shows at least some level of blood-brain barrier permeability”.
As for `CN1C(=O)OC(C)(C)C1=O` [trimethadione], in [1], the blood-brain barrier permeability result is given as “shows at least some level of blood-brain barrier permeability”.
In the case of `NS(=O)(=O)Cc1noc2ccccc12` [zonisamide], the blood-brain barrier permeability result in data set [1] is “shows at least some level of blood-brain barrier permeability”.
